Results reported in patent US20230270713A1, “Administration of Resiniferatoxin For Treatment of Bladder Pain or Bladder Cancer” (Sorrento Therapeutics, Inc., priority 2020, published 2023).

System: cats with FIC (Feline Idiopathic Cystitis)
Assay: VSOM in cats with Feline Idiopathic Cystitis
Type: in vivo, cat
Description: The effectiveness and safety of a single intravesical instillation with RTX was evaluated for the management of clinical and behavioral signs associated with non-obstructive FIC in cats. The primary effectiveness endpoint was the improvement in a Veterinary-specific Outcome Measure (VSOM) and Cystitis Events Survey on day 28.
The total VSOM is the sum of three individual VSOM scores that each have an integer value in the range of 1 to 5. Each individual VSOM score corresponds to a clinical sign/activity/behavior selected as relevant to FIC for an individual cat by the cat's owner or legal representative with the help of the Investigator. An example of a clinical sign/activity/behavior is pain or resentfulness on palpation. The minimum possible score for each individual VSOM score is 1, which indicates no problem, and the maximum is 5, which indicates an impossible activity/behavior or a maximum severity clinical sign. The minimum and maximum total VSOM scores are 3 and 15. On screening days (e.g., Day 0 and Day 28), the Investigator completed the VSOM questionnaire and assigned a score to each of the 3 clinical signs/activities/behaviours that were selected.
Treatment success was defined as “a reduction of at least 2 in total VSOM score at Day 3 and 28 compared to VSOM score at day 0.” A decrease of less than 2, no change, or an increase in total score was defined as treatment failure. Cats presenting an increase in any individual VSOM score were considered a treatment failure regardless of total VSOM score.
RTX was provided as a 25 μg/mL (2.4 mL) solution, formulated with polysorbate, glucose, and phosphate buffer, and diluted in saline to 1 μg/mL before instillation. Intravesical instillation: After the cat has reached an adequate anesthesia level, the perineal area was prepared using a standard aseptic technique. After preparation, a urinary catheter (type and size decided on a case by case basis) was placed using aseptic technique. Then, the urinary bladder was emptied and flushed with 20 ml of sterile saline. Once the flush solution was removed, the RTX solution was infused through the urinary catheter over 2 minutes. Once the total volume of the solution is infused, the solution was left in the urinary bladder for 20 min. At the end of this period the IVP (investigational veterinary product) solution was removed. Finally, the urinary catheter was removed, and the perineal area was flushed with 20 ml of saline. The total amount of solution removed from the bladder was recorded.
24 cats were treated and the cohorts and their respective IVP treatments are described in the table 9 below. The cohorts were populated and dosed sequentially. Cats enrolled in Cohorts 2, 3 and 4 were dosed at least 3 days after the previous cohort closed.

[1] = Overall (Cohorts 1-4), Day 28 vs Day 0

C=C(C)[C@]12C[C@@H](C)[C@@]34O[C@](Cc5ccccc5)(O[C@@H]1[C@@H]3C=C(COC(=O)Cc1ccc(O)c(OC)c1)C[C@]1(O)C(=O)C(C)=C[C@@H]41)O2 [RTX, resiniferatoxin]
VSOM, Maximum (25 μg (1 μg/mL), Day 0, n 6): 12.0 | VSOM, Minimum (25 μg (1 μg/mL), Day 28, n 5): 0.0 | VSOM treatment failure, number of cats [1]: 5 n | VSOM treatment success, number of cats [1]: 17 n | VSOM treatment success, percent of cats [1]: (77.2%)
